Drawing on PubChem BioAssay (NCI), this text covers TGI for ten molecules.

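Grown in 96-well plates, cells were treated for 48 hours with each compound at five concentrations. Insufficient inhibition: endpoint recorded as highest concentration tested. TGI: concentration producing complete growth inhibition.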 Where a SMILES comes first, the peptide text is derived from it. [ ]: non-standard residue; d: D form. The star is where a group is joined. NMeAc5c = CNC1(C(=O)O)CCCC1; Boc = CC(C)(C)OC(=O)*; OBn = c1ccc(CO*)cc1

The first assay relates to HL-60(TB) leukemia. The assay is described as follows: growth of human tumour cells (NCI), 48 h.
With `O=C1/C(=C\c2ccccc2)C(NC2CCCCC2)c2ccccc21` (stereo not given), the TGI was determined as 3.02 µM.

`N#Cc1c(N2CCCC2)ncn(-c2ccccc2)c1=O` registered a TGI of over 100 µM.

As for `Clc1ccccc1C(SCc1ccccc1)SCc1ccccc1`, the TGI was over 100 µM.

In the case of `CC1(C)OC(=O)N(c2ccccc2)C12C=Cc1cc([N+](=O)[O-])cc([N+](=O)[O-])c1O2` (stereo not given), the TGI was over 100 µM.

Regarding `O=C1CCCSC(=O)N1Cc1ccccc1`, the TGI is over 100 µM.

In another assay the test system is SW-620 colon. The assay is described as follows: growth of human tumour cells (NCI), 48 h.
As for `Cc1ccc(-c2n[nH]c(=O)n2N2C(=O)c3ccccc3C2=O)cc1`, the TGI was over 100 µM.

Turning to `CN(C(=O)C(Cc1ccccc1)NC(=O)OC(C)(C)C)C1(C(=O)NC(Cc2ccccc2)C(=O)OCc2ccccc2)CCCC1` (stereo not drawn) (Boc-Phe-[NMeAc5c]-Phe-OBn; configuration not given here), the TGI is over 100 µM.

`COc1cc2c(c(OC)c1OC)C(=O)[C@@H]1[C@H]2N1C(N)=O` returned a TGI of over 100 µM.

In turn, `C[C@]12CCC(O)CC1=CC[C@@H]1[C@@H]2CC[C@]2(C)C(=O)[C@H](n3ccnc3)C[C@@H]12` (stereo not given in full) registered a TGI of over 100 µM.

In turn, `COC(=O)c1ccccc1CC1Cc2ccc3c(c2C1=O)CCCC3` (stereo not given) registered a TGI of over 100 µM.

In turn, `O=C1/C(=C\c2ccccc2)C(NC2CCCCC2)c2ccccc21` (stereo not given) came in with a TGI of 2.12 µM.

`N#Cc1c(N2CCCC2)ncn(-c2ccccc2)c1=O`: the TGI was over 100 µM.

For the molecule `Clc1ccccc1C(SCc1ccccc1)SCc1ccccc1`, the TGI was over 100 µM.

Turning to `CC1(C)OC(=O)N(c2ccccc2)C12C=Cc1cc([N+](=O)[O-])cc([N+](=O)[O-])c1O2` (stereo not given), the TGI was over 100 µM.

For the molecule `O=C1CCCSC(=O)N1Cc1ccccc1`, the TGI was over 100 µM.

In another assay the test system is NCI-H226 lung. The assay is described as follows: growth of human tumour cells (NCI), 48 h.
`Cc1ccc(-c2n[nH]c(=O)n2N2C(=O)c3ccccc3C2=O)cc1` registered a TGI of over 100 µM.

`CN(C(=O)C(Cc1ccccc1)NC(=O)OC(C)(C)C)C1(C(=O)NC(Cc2ccccc2)C(=O)OCc2ccccc2)CCCC1` (stereo not drawn) (Boc-Phe-[NMeAc5c]-Phe-OBn; configuration not given here) came in with a TGI of over 100 µM.

As for `COc1cc2c(c(OC)c1OC)C(=O)[C@@H]1[C@H]2N1C(N)=O`, the TGI was over 100 µM.

In turn, `C[C@]12CCC(O)CC1=CC[C@@H]1[C@@H]2CC[C@]2(C)C(=O)[C@H](n3ccnc3)C[C@@H]12` (stereo not given in full) yielded a TGI of over 100 µM.

For `COC(=O)c1ccccc1CC1Cc2ccc3c(c2C1=O)CCCC3` (stereo not given), the TGI is over 100 µM.

Consider `O=C1/C(=C\c2ccccc2)C(NC2CCCCC2)c2ccccc21` (stereo not given), for which the TGI was found to be 14.1 µM.

Molecule `N#Cc1c(N2CCCC2)ncn(-c2ccccc2)c1=O` returned a TGI of over 100 µM.

Molecule `Clc1ccccc1C(SCc1ccccc1)SCc1ccccc1` had a TGI of over 100 µM.

Consider `CC1(C)OC(=O)N(c2ccccc2)C12C=Cc1cc([N+](=O)[O-])cc([N+](=O)[O-])c1O2` (stereo not given), for which the TGI was over 100 µM.

The molecule `O=C1CCCSC(=O)N1Cc1ccccc1` gave a TGI of over 100 µM.

The subject of the next assay is KM12 colon. Briefly: growth of human tumour cells (NCI), 48 h.
`Cc1ccc(-c2n[nH]c(=O)n2N2C(=O)c3ccccc3C2=O)cc1` came in with a TGI of over 100 µM.

Consider `CN(C(=O)C(Cc1ccccc1)NC(=O)OC(C)(C)C)C1(C(=O)NC(Cc2ccccc2)C(=O)OCc2ccccc2)CCCC1` (stereo not drawn) (Boc-Phe-[NMeAc5c]-Phe-OBn; configuration not given here), for which the TGI was over 100 µM.

The molecule `COc1cc2c(c(OC)c1OC)C(=O)[C@@H]1[C@H]2N1C(N)=O` yielded a TGI of over 100 µM.

On to `C[C@]12CCC(O)CC1=CC[C@@H]1[C@@H]2CC[C@]2(C)C(=O)[C@H](n3ccnc3)C[C@@H]12` (stereo not given in full), for which the TGI is over 100 µM.

In turn, `COC(=O)c1ccccc1CC1Cc2ccc3c(c2C1=O)CCCC3` (stereo not given) displayed a TGI of over 100 µM.

Turning to `O=C1/C(=C\c2ccccc2)C(NC2CCCCC2)c2ccccc21` (stereo not given), the TGI was determined as 15.9 µM.

Take `N#Cc1c(N2CCCC2)ncn(-c2ccccc2)c1=O`: the TGI is over 100 µM.

On to `Clc1ccccc1C(SCc1ccccc1)SCc1ccccc1`, for which the TGI is over 100 µM.

The molecule `CC1(C)OC(=O)N(c2ccccc2)C12C=Cc1cc([N+](=O)[O-])cc([N+](=O)[O-])c1O2` (stereo not given) yielded a TGI of over 100 µM.

`O=C1CCCSC(=O)N1Cc1ccccc1` yielded a TGI of over 100 µM.

A further assay relates to OVCAR-5 ovarian. Briefly: growth of human tumour cells (NCI), 48 h.
In turn, `Cc1ccc(-c2n[nH]c(=O)n2N2C(=O)c3ccccc3C2=O)cc1` had a TGI of over 100 µM.

Molecule `CN(C(=O)C(Cc1ccccc1)NC(=O)OC(C)(C)C)C1(C(=O)NC(Cc2ccccc2)C(=O)OCc2ccccc2)CCCC1` (stereo not drawn) (Boc-Phe-[NMeAc5c]-Phe-OBn; configuration not given here) showed a TGI of over 100 µM.

In turn, `COc1cc2c(c(OC)c1OC)C(=O)[C@@H]1[C@H]2N1C(N)=O` yielded a TGI of over 100 µM.

With `C[C@]12CCC(O)CC1=CC[C@@H]1[C@@H]2CC[C@]2(C)C(=O)[C@H](n3ccnc3)C[C@@H]12` (stereo not given in full), the TGI is over 100 µM.

Take `COC(=O)c1ccccc1CC1Cc2ccc3c(c2C1=O)CCCC3` (stereo not given): the TGI was over 100 µM.

In the case of `O=C1/C(=C\c2ccccc2)C(NC2CCCCC2)c2ccccc21` (stereo not given), the TGI turned out to be 10.4 µM.

On to `N#Cc1c(N2CCCC2)ncn(-c2ccccc2)c1=O`, for which the TGI is over 100 µM.

`Clc1ccccc1C(SCc1ccccc1)SCc1ccccc1` came in with a TGI of over 100 µM.

Molecule `CC1(C)OC(=O)N(c2ccccc2)C12C=Cc1cc([N+](=O)[O-])cc([N+](=O)[O-])c1O2` (stereo not given) showed a TGI of over 100 µM.

For `O=C1CCCSC(=O)N1Cc1ccccc1`, the TGI is over 100 µM.

The test system of another assay is OVCAR-8 ovarian. Briefly: growth of human tumour cells (NCI), 48 h.
As for `Cc1ccc(-c2n[nH]c(=O)n2N2C(=O)c3ccccc3C2=O)cc1`, the TGI was over 100 µM.

For `CN(C(=O)C(Cc1ccccc1)NC(=O)OC(C)(C)C)C1(C(=O)NC(Cc2ccccc2)C(=O)OCc2ccccc2)CCCC1` (stereo not drawn) (Boc-Phe-[NMeAc5c]-Phe-OBn; configuration not given here), the TGI is over 100 µM.

As to `COc1cc2c(c(OC)c1OC)C(=O)[C@@H]1[C@H]2N1C(N)=O`, the TGI is over 100 µM.

`C[C@]12CCC(O)CC1=CC[C@@H]1[C@@H]2CC[C@]2(C)C(=O)[C@H](n3ccnc3)C[C@@H]12` (stereo not given in full) came in with a TGI of over 100 µM.

On to `COC(=O)c1ccccc1CC1Cc2ccc3c(c2C1=O)CCCC3` (stereo not given), for which the TGI was over 100 µM.

The molecule `O=C1/C(=C\c2ccccc2)C(NC2CCCCC2)c2ccccc21` (stereo not given) returned a TGI of 6.09 µM.

The molecule `N#Cc1c(N2CCCC2)ncn(-c2ccccc2)c1=O` displayed a TGI of over 100 µM.

On to `Clc1ccccc1C(SCc1ccccc1)SCc1ccccc1`, for which the TGI was over 100 µM.

`CC1(C)OC(=O)N(c2ccccc2)C12C=Cc1cc([N+](=O)[O-])cc([N+](=O)[O-])c1O2` (stereo not given) came in with a TGI of over 100 µM.

In turn, `O=C1CCCSC(=O)N1Cc1ccccc1` registered a TGI of over 100 µM.

For the next assay, the system named is DU-145 prostate. Briefly: growth of human tumour cells (NCI), 48 h.
In the case of `Cc1ccc(-c2n[nH]c(=O)n2N2C(=O)c3ccccc3C2=O)cc1`, the TGI is over 100 µM.

Take `CN(C(=O)C(Cc1ccccc1)NC(=O)OC(C)(C)C)C1(C(=O)NC(Cc2ccccc2)C(=O)OCc2ccccc2)CCCC1` (stereo not drawn) (Boc-Phe-[NMeAc5c]-Phe-OBn; configuration not given here): the TGI is over 100 µM.

Molecule `COc1cc2c(c(OC)c1OC)C(=O)[C@@H]1[C@H]2N1C(N)=O` yielded a TGI of over 100 µM.

For `C[C@]12CCC(O)CC1=CC[C@@H]1[C@@H]2CC[C@]2(C)C(=O)[C@H](n3ccnc3)C[C@@H]12` (stereo not given in full), the TGI was over 100 µM.

Molecule `COC(=O)c1ccccc1CC1Cc2ccc3c(c2C1=O)CCCC3` (stereo not given) came in with a TGI of over 100 µM.

For `O=C1/C(=C\c2ccccc2)C(NC2CCCCC2)c2ccccc21` (stereo not given), the TGI came out at 3.09 µM.

In turn, `N#Cc1c(N2CCCC2)ncn(-c2ccccc2)c1=O` gave a TGI of over 100 µM.

`Clc1ccccc1C(SCc1ccccc1)SCc1ccccc1`: the TGI is over 100 µM.

With `CC1(C)OC(=O)N(c2ccccc2)C12C=Cc1cc([N+](=O)[O-])cc([N+](=O)[O-])c1O2` (stereo not given), the TGI was over 100 µM.

Take `O=C1CCCSC(=O)N1Cc1ccccc1`: the TGI was over 100 µM.
